Experiment [1] concerns the target BRD4 protein (Homo sapiens (Human), UniProt O60885). Briefly: BRD4 protein degradation inducing action in cancer cells (immunofluorescence, Operetta). It is filed as cell-based. Particulars: LNCaP cells, 6 hr treatment, fluorescence intensity. How it is done: The degradation inducing action of the compound of the present invention on BRD4 protein in cancer cells was evaluated in vitro using human prostate cancer LNCaP cells. LNCaP cells were suspended in 10% FBS/RPMI1640, seeded in a 96 well Cell carrier plate (Perkin Elmer) and cultured at 5% CO2, 37° C. overnight. A test compound dissolved in DMSO was diluted with 10% FBS/RPMI1640 and added and the cells were further cultured for 6 hr. After culturing, the cells were immobilized with 4% para-formaldehyde/PBS and further subjected to a permeation treatment with 0.25% Triton X-100/PBS. Thereafter, the cells were blocked with 10% BSA/PBS, a solution containing Anti-Brd4 antibody (Abcam) or Anti-BRD4 (Sigma-Aldrich) as the primary antibody was added and the cells were incubated at 4° C. overnight. Thereafter, as the secondary antibody, a solution containing secondary antibody A shown below was added to Example compounds 1-190, 223 and 224, and a solution containing secondary antibody B shown below was added to Example compounds 191-222, and 0.5 μg/mL Hoechst 33342 (Sigma-Aldrich) and 14 μM Acti-Stain 555 Fluorescent Phalloidin (Cytoskeleton) were further added. After incubation for 1 hr, BRD4 protein amount was measured by Operetta (Perkin Elmer) as fluorescence intensity.
• Anti-Rabbit IgG(H+L), F(ab′)2 Fragment (Alexa Fluor 488 Conjugate) (Cell Signaling Technology), fluorescence intensity was measured at excitation: 495 nm, emission: 519 nm. Secondary Antibody B • Goat anti-Rabbit IgG(H+L) Cross-Adserbed Secondary Antibody (Alexa Fluor 546) (Thermo Fisher Scientific) fluorescence intensity was measured at excitation: 560 nm, emission: 572 nm.
The BRD4 protein degradation inducing activity of the compound of the present invention in LNCaP cells is shown in DC50 value in Table 3. The DC50 value is a concentration of the compound showing 50% fluorescence intensity when the fluorescence intensity thereof under compound untreated condition is 100%. It was calculated from the straight line connecting the fluorescence intensity at two points enclosing the 50% fluorescence intensity and the compound concentration.

Experiment [2] concerns human prostate cancer LNCaP cells. Briefly: Cytotoxic action on cancer cells (WST-8, 96 hr). It is filed as cell-based. The settings on record: Homo sapiens, LNCaP, 96 h, read-out: LNCaP cytotoxic activity: IC50. How it is done:
The cytotoxic action of the compound of the present invention against human cancer cells was evaluated in vitro. In this experiment, (+)-JQ1 (Nature volume 468, pages 1067-1073 (23 Dec. 2010)) known to have an inhibitory activity on the binding of BRD4 protein and a ligand therefor was used as a positive control drug. Respective cells were suspended in 10% FBS/RPMI1640, seeded in a 96 well plate and cultured at 5% CO2, 37° C. overnight. A test compound dissolved in DMSO was diluted with 10% FBS/RPMI1640 and added and the cells were further cultured for 96 hr. After culturing, the viable cell number was measured using a cell number measurement WST-8 kit (Kishida Chemical Co., Ltd.). As a control, the measurement was performed under conditions free of the test compound. The cytotoxic activity of the compound of the present invention against human prostate cancer LNCaP cells is shown in IC50 value in Table 1. […] It was calculated from the straight line connecting the cell survival rate at two points enclosing the 50% cell survival rate and the compound concentration. In addition, the cytotoxic activity against respective cancer cells of human acute myeloid leukemia MV-4-11 cell, human chronic myeloid leukemia K562 cell, human multiple myeloma MM.1S cell, human diffuse large B-cell lymphoma SU-DHL-6 cell, human T-cell leukemia Jurkat cells, human Burkitt lymphoma Raji cell, human castration-resistant prostate cancer PC-3 cell, human ovarian cancer A2780 cell, human bladder cancer 5637 cell, human breast cancer ZR-75-1 cell, human triple negative breast cancer MDA-MB-231 cell, human uterine sarcoma MES-SA cell, human gastric cancer SNU-16 cell, human non-small cell lung cancer NCI-H1975 cell, human small cell lung cancer NCI-H82 cell, human large cell lung cancer NCI-H460 cell, human colorectal cancer HCT116 cell, human glioma U-87 MG cell, human pancreatic cancer AsPC-1 cell, and human liver cancer Hep G2 cell is shown in IC50 value in Table 2.

Data on 9 molecules can be found in US11542273B2, “Amide compound having bet proteolysis-inducing action and medicinal application thereof” (MITSUBISHI TANABE PHARMA CORPORATION, priority 2018, dated 2023).

Each structure is given as a SMILES string.

The DC50 is the midpoint of the concentration-degradation curve. The low end stands for a more potent degrader, the high end for a less potent degrader. One may read the IC50 as the concentration needed to halve the response being measured. In experiment [1], `COC(=O)C[C@@H]1N=C(c2ccc(-c3ccc(C(=O)N[C@H](C(=O)N4C[C@H](O)C[C@H]4C(=O)N[C@@H](C)c4ccc(-c5scnc5C)cc4)C(C)(C)C)s3)cc2)c2c(sc(C)c2C)-n2c(C)nnc21` [Example 141, methyl [(6S)-4-{4-[5-({(2S)-1-[(2S,4R)-4-hydroxy-2-({(1S)-1-[4-(4-methyl-1,3-thiazol-5-yl)phenyl]ethyl}carbamoyl)pyrrolidin-1-yl]-3,3-dimethyl-1-oxobutan-2-yl}carbamoyl)thiophen-2-yl]phenyl}-2,3,9-trimethyl-6H-thieno[3,2-f][1,2,4]triazolo[4,3-a][1,4]diazepin-6-yl]acetate] returned a DC50 of 720 pM. Further, the IC50 in experiment [2] was 380 pM.

For the molecule `COC(=O)C[C@@H]1N=C(c2ccc(-c3ccc4c(c3)N(CC(=O)N[C@H](C(=O)N3C[C@H](O)C[C@H]3C(=O)N[C@@H](C)c3ccc(-c5scnc5C)cc3)C(C)(C)C)C(=O)CC4)cc2)c2c(sc(C)c2C)-n2c(C)nnc21` [Example 146, methyl [(6S)-4-(4-{1-[2-({(2S)-1-[(2S,4R)-4-hydroxy-2-({(1S)-1-[4-(4-methyl-1,3-thiazol-5-yl)phenyl]ethyl}carbamoyl)pyrrolidin-1-yl]-3,3-dimethyl-1-oxobutan-2-yl}amino)-2-oxoethyl]-2-oxo-1,2,3,4-tetrahydroquinolin-7-yl}phenyl)-2,3,9-trimethyl-6H-thieno[3,2-f] [1,2,4]triazolo[4,3-a][1,4]diazepin-6-yl]acetate], in experiment [1], the 50% degradation concentration (DC50) turned out to be 460 pM. Further, the IC50 in experiment [2] amounted to 440 pM.

`COC(=O)C[C@@H]1N=C(c2ccc(-c3cccc4c3CN(CC(=O)N[C@H](C(=O)N3C[C@H](O)C[C@H]3C(=O)N[C@@H](C)c3ccc(-c5scnc5C)cc3)C(C)(C)C)CC4)cc2)c2c(sc(C)c2C)-n2c(C)nnc21` [Example 147, methyl [(6S)-4-(4-{2-[2-({(2S)-1-[(2S,4R)-4-hydroxy-2-({(1S)-1-[4-(4-methyl-1,3-thiazol-5-yl)phenyl]ethyl}carbamoyl)pyrrolidin-1-yl]-3,3-dimethyl-1-oxobutan-2-yl}amino)-2-oxoethyl]-1,2,3,4-tetrahydroisoquinolin-8-yl}phenyl)-2,3,9-trimethyl-6H-thieno[3,2-f] [1,2,4]triazolo[4,3-a][1,4]diazepin-6-yl]acetate] showed a DC50 in experiment [1] of 280 pM. In addition, in experiment [2], the IC50 came out at 340 pM.

Take `COC(=O)C[C@@H]1N=C(c2ccc(N3CCc4cc(OCC(=O)N[C@H](C(=O)N5C[C@H](O)C[C@H]5C(=O)N[C@@H](C)c5ccc(-c6scnc6C)cc5)C(C)(C)C)ccc43)cc2)c2c(sc(C)c2C)-n2c(C)nnc21` [Example 151, methyl [(6S)-4-(4-{5-[2-({(2S)-1-[(2S,4R)-4-hydroxy-2-({(1S)-1-[4-(4-methyl-1,3-thiazol-5-yl)phenyl]ethyl}carbamoyl)pyrrolidin-1-yl]-3,3-dimethyl-1-oxobutan-2-yl}amino)-2-oxoethoxy]-2,3-dihydro-1H-indol-1-yl}phenyl)-2,3,9-trimethyl-6H-thieno[3,2-f][1,2,4]triazolo[4,3-a] [1,4]diazepin-6-yl]acetate]: half-maximal degradation in experiment [1] (DC50) was put at 42 pM. The IC50 in experiment [2] is 58 pM.

In turn, `COC(=O)C[C@@H]1N=C(c2ccc(-c3ccc(OCC(=O)N[C@H](C(=O)N4C[C@H](O)C[C@H]4C(=O)N[C@@H](C)c4ccc(-c5scnc5C)cc4)C(C)(C)C)c(CO)c3)cc2)c2c(sc(C)c2C)-n2c(C)nnc21` [Example 154, methyl [(6S)-4-{3′-(hydroxymethyl)-4′-[2-({(2S)-1-[(2S,4R)-4-hydroxy-2-({(1S)-1-[4-(4-methyl-1,3-thiazol-5-yl)phenyl]ethyl}carbamoyl)pyrrolidin-1-yl]-3,3-dimethyl-1-oxobutan-2-yl}amino)-2-oxoethoxy][1,1′-biphenyl]-4-yl}-2,3,9-trimethyl-6H-thieno[3,2-f][1,2,4]triazolo[4,3-a][1,4]diazepin-6-yl]acetate] returned a DC50 in experiment [1] of 420 pM. Moreover, the IC50 in experiment [2] is 450 pM.

Consider `COC(=O)C[C@@H]1N=C(c2ccc(N3CCc4ccc(C(=O)N[C@H](C(=O)N5C[C@H](O)C[C@H]5C(=O)N[C@@H](C)c5ccc(-c6scnc6C)cc5)C(C)(C)C)cc4C3)cc2)c2c(sc(C)c2C)-n2c(C)nnc21` [Example 161, methyl [(6S)-4-{4-[7-({(2S)-1-[(2S,4R)-4-hydroxy-2-({(1S)-1-[4-(4-methyl-1,3-thiazol-5-yl)phenyl]ethyl}carbamoyl)pyrrolidin-1-yl]-3,3-dimethyl-1-oxobutan-2-yl}carbamoyl)-3,4-dihydroisoquinolin-2(1H)-yl]phenyl}-2,3,9-trimethyl-6H-thieno[3,2-f][1,2,4]triazolo[4,3-a][1,4]diazepin-6-yl]acetate], for which it took 75 pM to reach half-maximal degradation in experiment [1] (DC50). For the same molecule, the IC50 in experiment [2] is 220 pM.

As for `COC(=O)C[C@@H]1N=C(c2ccc(-c3ccc(O[C@H]4C[C@@H](C(=O)N[C@H](C(=O)N5C[C@H](O)C[C@H]5C(=O)N[C@@H](C)c5ccc(-c6scnc6C)cc5)C(C)(C)C)C4)nc3)cc2)c2c(sc(C)c2C)-n2c(C)nnc21` [Example 162, methyl {(6S)-4-[4-(6-{[cis-3-({(2S)-1-[(2S,4R)-4-hydroxy-2-({(1S)-1-[4-(4-methyl-1,3-thiazol-5-yl)phenyl]ethyl}carbamoyl)pyrrolidin-1-yl]-3,3-dimethyl-1-oxobutan-2-yl}carbamoyl)cyclobutyl]oxy}pyridin-3-yl)phenyl]-2,3,9-trimethyl-6H-thieno[3,2-f][1,2,4]triazolo[4,3-a] [1,4]diazepin-6-yl}acetate], it took 300 pM to reach half-maximal degradation in experiment [1] (DC50). In addition, the concentration for half-maximal inhibition (IC50) in experiment [2] is 370 pM.

On to `COC(=O)C[C@@H]1N=C(c2ccc(-c3ccc4cc(C(=O)N[C@H](C(=O)N5C[C@H](O)C[C@H]5C(=O)N[C@@H](C)c5ccc(-c6scnc6C)cc5)C(C)(C)C)oc4c3)cc2)c2c(sc(C)c2C)-n2c(C)nnc21` [Example 164, methyl [(6S)-4-{4-[2-({(2S)-1-[(2S,4R)-4-hydroxy-2-({(1S)-1-[4-(4-methyl-1,3-thiazol-5-yl)phenyl]ethyl}carbamoyl)pyrrolidin-1-yl]-3,3-dimethyl-1-oxobutan-2-yl}carbamoyl)-1-benzofuran-6-yl]phenyl}-2,3,9-trimethyl-6H-thieno[3,2-f][1,2,4]triazolo[4,3-a][1,4]diazepin-6-yl]acetate], for which the DC50 in experiment [1] is 66 pM. The IC50 in experiment [2] is 77 pM.

`COC(=O)C[C@@H]1N=C(c2ccc(-c3ccc(O[C@H]4C[C@H](C(=O)N[C@H](C(=O)N5C[C@H](O)C[C@H]5C(=O)N[C@@H](C)c5ccc(-c6scnc6C)cc5)C(C)(C)C)C4)nc3)cc2)c2c(sc(C)c2C)-n2c(C)nnc21` [Example 165, methyl {(6S)-4-[4-(6-{[trans-3-({(2S)-1-[(2S,4R)-4-hydroxy-2-({(1S)-1-[4-(4-methyl-1,3-thiazol-5-yl)phenyl]ethyl}carbamoyl)pyrrolidin-1-yl]-3,3-dimethyl-1-oxobutan-2-yl}carbamoyl)cyclobutyl]oxy}pyridin-3-yl)phenyl]-2,3,9-trimethyl-6H-thieno[3,2-f][1,2,4]triazolo[4,3-a] [1,4]diazepin-6-yl}acetate] returned a half-maximal degradation concentration (DC50) in experiment [1] of 41 pM. Also, the concentration for half-maximal inhibition (IC50) in experiment [2] amounted to 260 pM.
